Source: publication PMC6514978, “Synthesis, Antibacterial Activities, Mode of Action and Acute Toxicity Studies of New Oxazolidinone-Fluoroquinolone Hybrids” (Molecules, 2019)
≈ marks a conversion by molar mass, not a printed value.

Assays:
[1] = tested on: S. agalactiae^R (13B317), levofloxacin-resistant S. agalactiae; experiment: MIC, broth microdilution (CLSI), clinical isolate; type: cell-based; details: Streptococcus agalactiae; levofloxacin-resistant S. agalactiae (13B317)
Excerpt: (§1) 6 standard strains and 3 clinical isolates were used to the preliminary evaluation of in vitro antibacterial activities of oxazolidinone-fluoroquinolone hybrids. For the further evaluation of hybrids OBP-4 and OBP-5, 263 clinical isolates including S. aureus (46), S. haemolyticus(32), S. epidermidis (10), E. faecalis (72), E. faecium (47), S. pneumoniae (13), H. parasuis (34), S. suis (9), and 8 resistant strains including MRSA, MRSE, CIP-resistant S. aureus and S. haemolyticus, VAN and quinolone-resistant S. pneumoniae, LZD-resistant E. faecalis, LZD/VAN and quinolone-resistant E. faecium were collected and tested.
(§2) Susceptibility testing of oxazolidinone-fluoroquinolone hybrids against various bacteria was performed by the broth microdilution method as outlined by the Clinical and Laboratory Standards Institute (CLSI). Three types of media, including cation-adjusted Mueller Hinton broth, Haemophilus Test Medium and cation-adjusted Mueller Hinton broth that contained 3%–5% lysed horse blood, were used to culture the corresponding bacteria. All compounds including comparator drugs were dissolved in an appropriate solvent at a concentration of 2.048 mg/mL and then serially diluted two-fold to provide the required concentrations. A final inoculum of 5 × 10^5 CFU/mL was used and plates were read after incubation for 16–24 h at 35 °C. […] Standard quality control strains (ATCC) were included throughout. Each determination was repeated in triplicate.

[2] = tested on: MRSA (13B262); experiment: MIC, broth microdilution (CLSI), clinical isolate; type: cell-based; details: Staphylococcus aureus
Excerpt: as §1, §2

[3] = tested on: S. epidermidis (10) clinical isolates; experiment: Susceptibility of clinical isolates (MIC); type: cell-based, Staphylococcus epidermidis; details: for Cumulative % of strains inhibited at MIC / No. of strains inhibited at MIC: S. epidermidis (10)
Experimental: as §2, with “All compounds including comparator drugs were dissolved in an appropriate solvent at a concentration of 2.048 mg/mL and then serially diluted two-fold to provide the required concentrations.” left out

[4] = tested on: E. faecalis (72) clinical isolates; experiment: Susceptibility of clinical isolates (MIC); type: cell-based, Enterococcus faecalis; details: for Cumulative % of strains inhibited at MIC / No. of strains inhibited at MIC: E. faecalis (72)
Experimental: as §2, with “All compounds including comparator drugs were dissolved in an appropriate solvent at a concentration of 2.048 mg/mL and then serially diluted two-fold to provide the required concentrations.” left out

[5] = tested on: S. aureus (46) clinical isolates; experiment: Susceptibility of clinical isolates (MIC); type: cell-based, Staphylococcus aureus; details: for Cumulative % of strains inhibited at MIC / No. of strains inhibited at MIC: S. aureus (46)
Experimental: as §2, with “All compounds including comparator drugs were dissolved in an appropriate solvent at a concentration of 2.048 mg/mL and then serially diluted two-fold to provide the required concentrations.” left out

[6] = tested on: S. suis (9) clinical isolates; experiment: Susceptibility of clinical isolates (MIC); type: cell-based, Streptococcus suis; details: for Cumulative % of strains inhibited at MIC / No. of strains inhibited at MIC: S. suis (9)
Experimental: as §2, with “All compounds including comparator drugs were dissolved in an appropriate solvent at a concentration of 2.048 mg/mL and then serially diluted two-fold to provide the required concentrations.” left out

[7] = tested on: E. faecalis (ATCC29212); experiment: MIC, broth microdilution (CLSI), standard strain; type: cell-based; details: Enterococcus faecalis; E. faecalis (ATCC29212); read-out: MIC
Excerpt: as §1, §2

[8] = tested on: S. aureus (ATCC29213); experiment: MIC, broth microdilution (CLSI), standard strain; type: cell-based; details: Staphylococcus aureus
Excerpt: as §1, §2

[9] = tested on: E. coli (ATCC25922); experiment: MIC, broth microdilution (CLSI), standard strain; type: cell-based; details: Escherichia coli; E. coli (ATCC25922); read-out: MIC
Excerpt: as §1, §2

[10] = tested on: P. Aeruginosa (ATCC27853); experiment: MIC, broth microdilution (CLSI), standard strain; type: cell-based; details: Pseudomonas aeruginosa; P. Aeruginosa (ATCC27853); read-out: MIC
Excerpt: as §1, §2

[11] = tested on: H. influenzae (ATCC49247); experiment: MIC, broth microdilution (CLSI), standard strain; type: cell-based; details: Haemophilus influenzae
Excerpt: as §1, §2

[12] = tested on: S. pneumoniae (13) clinical isolates; experiment: Susceptibility of clinical isolates (MIC); type: cell-based, Streptococcus pneumoniae; details: for Cumulative % of strains inhibited at MIC / No. of strains inhibited at MIC: S. pneumoniae (13)
Experimental: as §2, with “All compounds including comparator drugs were dissolved in an appropriate solvent at a concentration of 2.048 mg/mL and then serially diluted two-fold to provide the required concentrations.” left out

[13] = tested on: S. haemolyticus (32) clinical isolates; experiment: Susceptibility of clinical isolates (MIC); type: cell-based, Staphylococcus haemolyticus; details: for Cumulative % of strains inhibited at MIC / No. of strains inhibited at MIC: S. haemolyticus (32)
Experimental: as §2, with “All compounds including comparator drugs were dissolved in an appropriate solvent at a concentration of 2.048 mg/mL and then serially diluted two-fold to provide the required concentrations.” left out

[14] = tested on: CIP-resistant S. haemolyticus; experiment: MIC against drug-resistant strain; type: cell-based; details: Staphylococcus haemolyticus; S. haemolyticus, CIP-resistant; read-out: MIC
Experimental: (§3) 6 standard strains and 3 clinical isolates were used to the preliminary evaluation of in vitro antibacterial activities of oxazolidinone-fluoroquinolone hybrids.
as §2, with “All compounds including comparator drugs were dissolved in an appropriate solvent at a concentration of 2.048 mg/mL and then serially diluted two-fold to provide the required concentrations.” left out

[15] = tested on: VAN and quinolone-resistant S. pneumoniae; experiment: MIC against drug-resistant strain; type: cell-based; details: Streptococcus pneumoniae; S. pneumoniae, VAN and quinolone-resistant; read-out: MIC
Experimental: as §3
as §2, with “All compounds including comparator drugs were dissolved in an appropriate solvent at a concentration of 2.048 mg/mL and then serially diluted two-fold to provide the required concentrations.” left out

[16] = tested on: VAN and quinolone-resistant E. faecium; experiment: MIC against drug-resistant strain; type: cell-based; details: Enterococcus faecium; E. faecium, VAN and quinolone-resistant; read-out: MIC
Experimental: as §3
as §2, with “All compounds including comparator drugs were dissolved in an appropriate solvent at a concentration of 2.048 mg/mL and then serially diluted two-fold to provide the required concentrations.” left out

[17] = tested on: CIP-resistant S. aureus; experiment: MIC against drug-resistant strain; type: cell-based; details: Staphylococcus aureus; S. aureus, CIP-resistant; read-out: MIC
Experimental: as §3
as §2, with “All compounds including comparator drugs were dissolved in an appropriate solvent at a concentration of 2.048 mg/mL and then serially diluted two-fold to provide the required concentrations.” left out

[18] = tested on: LZD and quinolone-resistant E. faecium; experiment: MIC against drug-resistant strain; type: cell-based; details: Enterococcus faecium; E. faecium, LZD and quinolone-resistant; read-out: MIC
Experimental: as §3
as §2, with “All compounds including comparator drugs were dissolved in an appropriate solvent at a concentration of 2.048 mg/mL and then serially diluted two-fold to provide the required concentrations.” left out

[19] = tested on: MRSA; experiment: MIC against drug-resistant strain; type: cell-based; details: Staphylococcus aureus, read-out: MIC
Experimental: as §3
as §2, with “All compounds including comparator drugs were dissolved in an appropriate solvent at a concentration of 2.048 mg/mL and then serially diluted two-fold to provide the required concentrations.” left out

[20] = Enterococcus faecalis, E. faecalis, 72 clinical isolates

## C[C@H]1CCc2c(N3CCC(O)(COc4ccc(N5C[C@H](CO)OC5=O)cc4F)CC3)c(F)cc3c(=O)c(C(=O)O)cn1c23 [OBP-4]
[1]
  MIC: 0.031 µg/mL (≈ 0.0517 µM)
[2]
  MIC: 0.5 µg/mL (≈ 0.834 µM)
[3]; MIC 0.125 µg/mL
  Cumulative % of strains inhibited at MIC: 60.0%
  No. of strains inhibited at MIC: 4
[3]; MIC […]
  Cumulative % of strains inhibited at MIC: 100.0%
  No. of strains inhibited at MIC: 4
[3]; MIC ≤[…]
  Cumulative % of strains inhibited at MIC: 20.0%
  No. of strains inhibited at MIC: 2
[3]; Staphylococcus epidermidis, S. epidermidis, 10 clinical isolates, read-out: MIC50
  MIC50: 0.125 µg/mL (≈ 0.208 µM)
[3]; Staphylococcus epidermidis, S. epidermidis, 10 clinical isolates, read-out: MIC90
  MIC90: 0.25 µg/mL (≈ 0.417 µM)
[3]; Staphylococcus epidermidis, S. epidermidis, 10 clinical isolates, read-out: MIC Range
  MIC: 0.0625 to 0.25 µg/mL (≈ 0.104 to 0.417 µM)
[4]; MIC 0.125 µg/mL
  Cumulative % of strains inhibited at MIC: 36.1%
  No. of strains inhibited at MIC: 17
[4]; MIC 0.5 µg/mL
  Cumulative % of strains inhibited at MIC: 98.6%
  No. of strains inhibited at MIC: 2
[4]; MIC 1 µg/mL
  Cumulative % of strains inhibited at MIC: 100.0%
  No. of strains inhibited at MIC: 1
[4]; MIC […]
  Cumulative % of strains inhibited at MIC: 95.8%
  No. of strains inhibited at MIC: 43
[4]; MIC ≤[…]
  Cumulative % of strains inhibited at MIC: 12.5%
  No. of strains inhibited at MIC: 9
[4]; E. faecalis clinical isolates
  fold higher activity than comparator agents: 2- to 16 fold
[4]; E. faecalis, 72 clinical isolates
  MIC Range: ≤0.0625 to 1 µg/mL
[4]; [20]
  MIC50: 0.25 µg/mL (≈ 0.417 µM)
  MIC90: 0.25 µg/mL (≈ 0.417 µM)
[5]; MIC 0.125 µg/mL
  Cumulative % of strains inhibited at MIC: 93.5%
  No. of strains inhibited at MIC: 17
[5]; MIC […]
  Cumulative % of strains inhibited at MIC: 100.0%
  No. of strains inhibited at MIC: 3
[5]; MIC ≤[…]
  Cumulative % of strains inhibited at MIC: 56.5%
  No. of strains inhibited at MIC: 26
[5]; Staphylococcus aureus, S. aureus, 46 clinical isolates, read-out: MIC50
  MIC50: ≤ 0.0625 µg/mL
[5]; Staphylococcus aureus, S. aureus, 46 clinical isolates, read-out: MIC90
  MIC90: 0.125 µg/mL (≈ 0.208 µM)
[5]; Staphylococcus aureus, S. aureus, 46 clinical isolates, read-out: MIC Range
  MIC: 0.0625 to 0.25 µg/mL (≈ 0.104 to 0.417 µM)
[6]; MIC 0.125 µg/mL
  Cumulative % of strains inhibited at MIC: 77.8%
  No. of strains inhibited at MIC: 2
[6]; MIC 2 µg/mL
  Cumulative % of strains inhibited at MIC: 100%
  No. of strains inhibited at MIC: 1
[6]; MIC […]
  Cumulative % of strains inhibited at MIC: 88.9%
  No. of strains inhibited at MIC: 1
[6]; MIC ≤[…]
  Cumulative % of strains inhibited at MIC: 55.6%
  No. of strains inhibited at MIC: 5
[6]; Streptococcus suis, S. suis, 9 clinical isolates, read-out: MIC50
  MIC50: ≤ 0.0625 µg/mL
[6]; Streptococcus suis, S. suis, 9 clinical isolates, read-out: MIC90
  MIC90: 0.25 µg/mL (≈ 0.417 µM)
[6]; Streptococcus suis, S. suis, 9 clinical isolates, read-out: MIC Range
  MIC: 0.0625 to 2 µg/mL (≈ 0.104 to 3.34 µM)
[7]
  MIC: 0.25 µg/mL (≈ 0.417 µM)
[8]
  MIC: 0.016 µg/mL (≈ 0.0267 µM)
[9]
  MIC: 4 µg/mL (≈ 6.67 µM)
[10]
  MIC: 64 µg/mL (≈ 107 µM)
[11]
  MIC: 0.25 µg/mL (≈ 0.417 µM)
[12]; MIC 0.125 µg/mL
  Cumulative % of strains inhibited at MIC: 38.5%
  No. of strains inhibited at MIC: 3
[12]; MIC 0.5 µg/mL
  Cumulative % of strains inhibited at MIC: 100.0%
  No. of strains inhibited at MIC: 1
[12]; MIC […]
  Cumulative % of strains inhibited at MIC: 92.3%
  No. of strains inhibited at MIC: 7
[12]; MIC ≤[…]
  Cumulative % of strains inhibited at MIC: 15.4%
  No. of strains inhibited at MIC: 2
[12]; S. pneumoniae, 13 clinical isolates
  MIC Range: ≤0.0625 to 0.5 µg/mL
[12]; Streptococcus pneumoniae, S. pneumoniae, 13 clinical isolates, read-out: MIC50
  MIC50: 0.25 µg/mL (≈ 0.417 µM)
[12]; Streptococcus pneumoniae, S. pneumoniae, 13 clinical isolates, read-out: MIC90
  MIC90: 0.25 µg/mL (≈ 0.417 µM)
[13]; MIC 0.125 µg/mL
  Cumulative % of strains inhibited at MIC: 93.8%
  No. of strains inhibited at MIC: 16
[13]; MIC 0.5 µg/mL
  Cumulative % of strains inhibited at MIC: 100.0%
  No. of strains inhibited at MIC: 2
[13]; MIC ≤[…]
  Cumulative % of strains inhibited at MIC: 43.8%
  No. of strains inhibited at MIC: 14
[13]; Staphylococcus haemolyticus, S. haemolyticus, 32 clinical isolates, read-out: MIC50
  MIC50: 0.125 µg/mL (≈ 0.208 µM)
[13]; Staphylococcus haemolyticus, S. haemolyticus, 32 clinical isolates, read-out: MIC90
  MIC90: 0.125 µg/mL (≈ 0.208 µM)
[13]; Staphylococcus haemolyticus, S. haemolyticus, 32 clinical isolates, read-out: MIC Range
  MIC: 0.0625 to 0.5 µg/mL (≈ 0.104 to 0.834 µM)
[14]
  MIC: 0.5 µg/mL (≈ 0.834 µM)
[15]
  MIC: 0.25 µg/mL (≈ 0.417 µM)
[16]
  MIC: 0.5 µg/mL (≈ 0.834 µM)
[17]
  MIC: 0.125 µg/mL (≈ 0.208 µM)
[18]
  MIC: 0.5 µg/mL (≈ 0.834 µM)
[19]
  MIC: 0.25 µg/mL (≈ 0.417 µM)
